{"source": "patent US11771708B2", "about": "“Pharmaceutical carriers capable of pH dependent reconstitution and methods for making and using same” (Greenwood Brands, LLC, priority 2020, dated 2023)", "assay": "carrier reorganization in simulated gastric fluid and aspirin partitioning (Examples 2 and 3)", "format": "physicochemical", "method": "5 grams of the composition is added to a beaker equipped with a magnetic stirrer and 50 mL of simulated gastric fluid is added with stirring. […] To this material, a 1 N solution of sodium hydroxide is added slowly to bring the pH up to about pH 7 with stirring. Raising the pH to pH 7 gives rise to a change in the carrier in a high pH environment. To this material, a 1 N solution of hydrochloride acid is added slowly until the pH is lowered to the pH of the simulated gastric fluid. It is expected that the carrier will reorganize. […] Thus, a carrier comprising a sufficient amount of a fatty acid in a triglyceride is capable of reorganization and absorption of a BAI from the low pH fluid, here simulated gastric fluid. 5 grams of the composition is added to a beaker equipped with a magnetic stirrer and 50 mL of simulated gastric fluid is added with stirring. […] To this material, a 1 N solution of sodium hydroxide is added slowly to bring the pH up to about pH 7 with stirring showing the change in the carrier in a high pH environment and the release of aspirin into the high pH environment. To this material, a 1 N solution of hydrochloride acid is added slowly until the pH is lowered to the pH of the simulated gastric fluid. […]", "data": [{"smiles": "CC(=O)Oc1ccccc1C(=O)O", "note": "[aspirin]", "values": [{"measurement": "aspirin partitioning between reorganized carrier and simulated gastric fluid", "setting": "Example 2: 10 g powdered aspirin added after oleic acid/soybean oil carrier was cycled low pH - pH 7 - low pH", "result": "partitions between the reorganized carrier and the simulated gastric fluid"}, {"measurement": "aspirin partitioning between reorganized carrier and simulated gastric fluid", "setting": "Example 3: carrier (oleic acid/soybean oil) and aspirin 1:1, cycled low pH - pH 7 - low pH", "result": "partitions between the reorganized carrier and the simulated gastric fluid"}]}]}
